Data reported in patent US9522890B2, “Compounds acting at multiple prostaglandin receptors giving a general anti-inflammatory response” (Allergan, Inc., priority 2011, dated 2016).

How the values were obtained:
Assay type in all cases: cell-based
[1] = biological target: T1, human recombinant prostanoid TP receptor (Homo sapiens, UniProt P21731); experiment: FLIPR Ca2+ signaling PG antagonist assay, TP receptor stable cell line; settings: HEK-293 EBNA cells, standard agonist U-46619
T1 construct: expressed in transfected cells
T1 sequence (P21731 1-343): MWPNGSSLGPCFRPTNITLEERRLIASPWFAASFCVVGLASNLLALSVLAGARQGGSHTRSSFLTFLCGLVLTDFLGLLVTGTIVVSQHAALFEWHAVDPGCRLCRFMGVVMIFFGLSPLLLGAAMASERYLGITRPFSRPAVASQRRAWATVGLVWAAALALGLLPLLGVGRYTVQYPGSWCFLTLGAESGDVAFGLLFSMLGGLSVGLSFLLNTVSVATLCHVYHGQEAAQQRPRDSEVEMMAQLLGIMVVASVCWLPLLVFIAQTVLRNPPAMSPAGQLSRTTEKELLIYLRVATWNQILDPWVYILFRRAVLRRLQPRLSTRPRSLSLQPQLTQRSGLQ
Experimental: (§1) The above compounds were tested for PG antagonist activity as follows using human recombinant prostanoid receptor (DP1, EP1-4, FP, IP and TP) stable cell lines:
(§2) In order to measure the response of Gs and Gi coupled prostanoid receptors as a Ca^2+ signal, chimeric G protein cDNAs were used. Stable cell lines over-expressing human prostanoid DP1, EP1-4, FP, IP, and TP receptors were established as follows:
(§3) Briefly, human prostanoid DP1, EP2, and EP4 receptor cDNAs were co-transfected with chimeric Gqs cDNA containing a haemagglutanin (HA) epitope; human prostanoid EP3 receptors were co-transfected with chimeric Gqi-HA; human EP1, FP, IP, and TP receptor cDNAs were expressed with no exogenous G-proteins. Gqs and Gqi chimeric cDNAs (Molecular Devices, Sunnyvale, Calif., U.S.A.), as well as cDNAs of prostanoid receptors, were cloned into a pCEP4 vector with a hygromycin B selection marker. Transfection into HEK-293 EBNA (Epstein-Barr virus nuclear antigen) cells was achieved by the FuGENE 6 transfection Reagent (Roche Applied Science, Indianapolis, Ind., USA). Stable transfectants were selected according to hygromycin resistance. Because Gqs and Gqi contained an HA epitope, G-protein expression was detected by Western blotting analysis using anti-mouse HA monoclonal antibody and horseradish peroxidase (HRP)-conjugated secondary antibody, while functional expression of prostanoid receptors was detected by FLIPR screening (Matias et al., 2004). These stable cell lines were validated using previously published antagonists at 10 μM against serial dilutions of standard agonists by FLIPR functional assays for Ca^2+ Signaling (as described below).
(§4) Ca^2+ signaling studies were performed using a FLIPR TETRA system (Molecular Devices, Sunnyvale, Calif., USA) in the 384-format. This is a high-throughput instrument for cell-based assays to monitor Ca^2+ signaling associated with GPCRs and ion channels. Cells were seeded at a density of 5×10^4 cells/well in BioCoat poly-D-lysine coated, black wall, clear bottom 384-well plates (BD Biosciences, Franklin lakes, NJ, USA) and allowed to attach overnight in an incubator at 37° C. The cells were then washed twice with HBSS-HEPES buffer (Hanks' balanced salt solution without bicarbonate and phenol red, 20 mM HEPES, pH 7.4) using an ELx405 Select CW Microplate Washer (BioTek, Winooski, Vt., USA). After 60 min of dye-loading in the dark using the Ca^2+-sensitive dye Fluo-4AM (Invitrogen, Carlsbad, Calif., USA), at a final concentration of 2×10^−6M, the plates were washed 4 times with HBSS-HEPES buffer to remove excess dye and leaving 50 μl of buffer in each well. The plates were then placed in the FLIPR TETRA instrument and allowed to equilibrate at 37° C. Compounds were added in a 25 μl volume to each well to give final concentrations of 0.1 μM, 0.3 μM, 1 μM, 3 μM, 10 μM, and 30 μM; or 0.067 μM, 0.1 μM, 0.2 μM, 0.3 μM, 0.67 μM, and 1 μM for cells over-expressing TP receptors. After 4.5 minutes, a 7-point serial dilution of the standard agonist for the corresponding receptor, in a 25 μl volume was injected at the final concentrations from 10^−11M to 10^−5M in 10-fold serial dilution increments for cells expressing human recombinant DP1, EP1, EP2, EP3, EP4, FP, and IP receptors. The dose range for the standard agonist for human recombinant TP receptors was from 10^−12M to 10^−6M. HBSS-HEPES buffer was used as the negative control for the standard agonists. Cells were excited with LED (light emitting diode) excitation at 470-495 nm and emission was measured through an emission filter at 515-575 nm. Assay plates were read for 3.5 minutes using the FLIPR^TETRA. The peak increase in fluorescence intensity was recorded for each well. On each plate, negative controls, dose response of positive controls, and co-treatments of antagonist-agonist for each dose were in triplicates. Standard agonists were as follows: DP=BW 245C, EP1-EP4=PGE2, FP=17-phenyl-PGF2α, IP=Cicaprost, and TP=U-46619. […]

[2] = biological target: T2, human recombinant prostanoid FP receptor (Homo sapiens, UniProt P43088); experiment: FLIPR Ca2+ signaling PG antagonist assay, FP receptor stable cell line; settings: HEK-293 EBNA cells, standard agonist 17-phenyl-PGF2α
T2 construct: expressed in transfected cells
T2 sequence (P43088 whole entry): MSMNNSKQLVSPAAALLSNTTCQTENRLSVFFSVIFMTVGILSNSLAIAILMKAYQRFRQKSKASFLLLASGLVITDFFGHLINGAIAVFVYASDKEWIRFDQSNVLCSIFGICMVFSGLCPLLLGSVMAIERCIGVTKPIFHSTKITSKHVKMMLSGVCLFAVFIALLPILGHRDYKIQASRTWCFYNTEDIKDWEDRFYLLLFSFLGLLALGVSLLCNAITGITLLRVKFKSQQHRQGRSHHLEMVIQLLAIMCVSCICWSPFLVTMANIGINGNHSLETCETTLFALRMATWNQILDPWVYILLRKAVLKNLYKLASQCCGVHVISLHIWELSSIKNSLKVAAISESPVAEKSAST
Experimental: as §1, §2, §3, §4

[3] = biological target: T3, human recombinant prostanoid EP4 receptor (Homo sapiens, UniProt P35408); experiment: FLIPR Ca2+ signaling PG antagonist assay, EP4 receptor stable cell line; settings: HEK-293 EBNA cells with chimeric Gqs, standard agonist PGE2
T3 construct: expressed in transfected cells; co-transfected with chimeric Gqs-HA
T3 sequence (P35408 whole entry): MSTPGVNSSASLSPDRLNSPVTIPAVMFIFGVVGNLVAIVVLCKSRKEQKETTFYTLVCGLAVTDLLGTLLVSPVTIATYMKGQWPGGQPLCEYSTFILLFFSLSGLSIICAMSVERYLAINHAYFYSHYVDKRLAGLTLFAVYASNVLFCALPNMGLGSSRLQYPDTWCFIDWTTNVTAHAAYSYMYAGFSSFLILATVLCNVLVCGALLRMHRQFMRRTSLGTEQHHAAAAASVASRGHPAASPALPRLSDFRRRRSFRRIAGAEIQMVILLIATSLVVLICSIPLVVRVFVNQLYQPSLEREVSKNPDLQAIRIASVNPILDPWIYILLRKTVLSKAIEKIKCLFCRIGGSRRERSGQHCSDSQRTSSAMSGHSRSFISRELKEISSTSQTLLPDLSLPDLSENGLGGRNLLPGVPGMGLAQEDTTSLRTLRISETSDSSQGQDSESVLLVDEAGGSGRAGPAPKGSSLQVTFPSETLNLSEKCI
Experimental: as §1, §2, §3, §4

[4] = biological target: T4, human recombinant prostanoid EP3 receptor (Homo sapiens, UniProt P43115); experiment: FLIPR Ca2+ signaling PG antagonist assay, EP3 receptor stable cell line; settings: HEK-293 EBNA cells with chimeric Gqi, standard agonist PGE2
T4 construct: expressed in transfected cells; co-transfected with chimeric Gqi-HA
T4 sequence (P43115 1-390): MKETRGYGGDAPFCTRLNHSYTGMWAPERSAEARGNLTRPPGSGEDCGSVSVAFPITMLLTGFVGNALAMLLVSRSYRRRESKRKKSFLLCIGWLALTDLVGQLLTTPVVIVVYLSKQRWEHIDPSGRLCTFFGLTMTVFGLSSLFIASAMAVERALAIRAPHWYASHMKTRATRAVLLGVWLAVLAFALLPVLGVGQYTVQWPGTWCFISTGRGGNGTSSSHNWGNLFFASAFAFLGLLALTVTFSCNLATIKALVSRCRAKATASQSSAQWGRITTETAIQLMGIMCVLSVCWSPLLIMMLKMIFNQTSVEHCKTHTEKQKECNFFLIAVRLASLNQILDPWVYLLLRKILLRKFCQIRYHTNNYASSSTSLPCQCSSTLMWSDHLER
Experimental: as §1, §2, §3, §4

[5] = biological target: T5, human recombinant prostanoid IP receptor (Homo sapiens, UniProt P43119); experiment: FLIPR Ca2+ signaling PG antagonist assay, IP receptor stable cell line; settings: HEK-293 EBNA cells, standard agonist Cicaprost
T5 construct: expressed in transfected cells
T5 sequence (P43119 whole entry): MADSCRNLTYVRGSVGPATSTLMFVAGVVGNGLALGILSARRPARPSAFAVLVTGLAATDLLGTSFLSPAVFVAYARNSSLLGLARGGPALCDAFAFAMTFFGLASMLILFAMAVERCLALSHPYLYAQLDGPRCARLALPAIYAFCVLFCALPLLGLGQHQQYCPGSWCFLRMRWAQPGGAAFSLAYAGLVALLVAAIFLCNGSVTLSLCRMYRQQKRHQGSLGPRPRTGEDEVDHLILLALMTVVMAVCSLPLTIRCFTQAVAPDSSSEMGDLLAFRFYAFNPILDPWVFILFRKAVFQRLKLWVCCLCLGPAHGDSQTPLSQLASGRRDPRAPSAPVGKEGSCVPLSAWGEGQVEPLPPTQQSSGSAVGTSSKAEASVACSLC
Experimental: as §1, §2, §3, §4

[6] = biological target: T6, human recombinant prostanoid EP2 receptor (Homo sapiens, UniProt P43116); experiment: FLIPR Ca2+ signaling PG antagonist assay, EP2 receptor stable cell line; settings: HEK-293 EBNA cells with chimeric Gqs, standard agonist PGE2
T6 construct: expressed in transfected cells; co-transfected with chimeric Gqs-HA
T6 sequence (P43116 whole entry): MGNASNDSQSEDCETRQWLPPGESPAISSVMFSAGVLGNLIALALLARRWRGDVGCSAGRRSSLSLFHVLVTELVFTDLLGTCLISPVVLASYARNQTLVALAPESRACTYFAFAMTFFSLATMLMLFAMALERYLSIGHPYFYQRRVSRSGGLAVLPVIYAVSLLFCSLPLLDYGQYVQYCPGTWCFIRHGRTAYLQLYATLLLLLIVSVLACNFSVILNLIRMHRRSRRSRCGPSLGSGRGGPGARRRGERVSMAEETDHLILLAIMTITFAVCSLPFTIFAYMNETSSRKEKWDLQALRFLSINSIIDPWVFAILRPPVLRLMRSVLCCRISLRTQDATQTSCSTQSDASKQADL
Experimental: as §1, §2, §3, §4

[7] = biological target: T7, human recombinant prostanoid DP1 receptor (Homo sapiens, UniProt Q13258); experiment: FLIPR Ca2+ signaling PG antagonist assay, DP1 receptor stable cell line; settings: HEK-293 EBNA cells with chimeric Gqs, standard agonist BW 245C; read-out: DP (antagonist Kb)
T7 construct: expressed in transfected cells; co-transfected with chimeric Gqs-HA
T7 sequence (Q13258 1-359): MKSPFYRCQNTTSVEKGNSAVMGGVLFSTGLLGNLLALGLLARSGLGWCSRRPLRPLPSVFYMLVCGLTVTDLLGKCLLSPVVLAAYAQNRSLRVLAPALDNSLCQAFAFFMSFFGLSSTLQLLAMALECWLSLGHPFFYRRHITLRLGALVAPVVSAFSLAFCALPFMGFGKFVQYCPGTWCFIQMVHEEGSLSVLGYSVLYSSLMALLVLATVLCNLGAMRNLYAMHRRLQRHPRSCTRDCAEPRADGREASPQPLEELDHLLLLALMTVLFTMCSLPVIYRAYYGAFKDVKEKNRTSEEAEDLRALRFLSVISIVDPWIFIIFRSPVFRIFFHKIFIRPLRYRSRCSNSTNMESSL
Experimental: as §1, §2, §3, §4

[8] = biological target: T8, human recombinant prostanoid EP1 receptor (Homo sapiens, UniProt P34995); experiment: FLIPR Ca2+ signaling PG antagonist assay, EP1 receptor stable cell line; settings: HEK-293 EBNA cells, standard agonist PGE2
T8 construct: expressed in transfected cells
T8 sequence (P34995 1-402): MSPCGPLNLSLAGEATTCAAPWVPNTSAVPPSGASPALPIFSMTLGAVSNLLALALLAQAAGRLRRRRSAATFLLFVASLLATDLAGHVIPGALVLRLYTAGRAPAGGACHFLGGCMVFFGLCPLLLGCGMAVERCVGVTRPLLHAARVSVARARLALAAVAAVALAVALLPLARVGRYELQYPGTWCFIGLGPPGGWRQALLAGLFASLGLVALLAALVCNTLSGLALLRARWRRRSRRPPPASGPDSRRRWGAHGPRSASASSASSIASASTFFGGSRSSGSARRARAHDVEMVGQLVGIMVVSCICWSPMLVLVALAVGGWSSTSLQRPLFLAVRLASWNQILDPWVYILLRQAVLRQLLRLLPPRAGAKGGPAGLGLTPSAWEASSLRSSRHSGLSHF
Experimental: as §1, §2, §3, §4

Row | Compound | Kb [1] | Kb [2] | Kb [3] | Kb [4] | Kb [5] | Kb [6] | Kb [7] | Kb [8]
1 | Cc1cc(C(=O)O)nn1Cc1cc(Cl)ccc1OCC1CCCC1 [Example 1, 1-(5-CHLORO-2-CYCLOPENTYLMETHOXY-BENZYL)-5-METHYL-1H-PYRAZOLE-3-CARBOXYLIC ACID] | < 1 nM | 150 nM | 800 nM | ≥ 10000 nM | ≥ 10000 nM | ≥ 10000 nM | 800 nM | 30 nM
2 | Cc1cc(C(=O)O)nn1Cc1cc(Br)ccc1OCC1CCCC1 [Example 2, 1-(5-BROMO-2-CYCLOPENTYLMETHOXY-BENZYL)-5-METHYL-1H-PYRAZOLE-3-CARBOXYLIC ACID] | < 1 nM | 20 nM | 400 nM | ≥ 10000 nM | 1300 nM | ≥ 10000 nM | 400 nM | 10 nM
3 | Cc1cc(C(=O)O)nn1Cc1cc(C(F)(F)F)ccc1OCC1CCCC1 [Example 3, 1-(2-CYCLOPENTYLMETHOXY-5-TRIFLUOROMETHYL-BENZYL)-5-METHYL-1H-PYRAZOLE-3-CARBOXYLIC ACID] | 1 nM | 80 nM | 700 nM | ≥ 10000 nM | 4000 nM | 8900 nM | 700 nM | 5 nM
4 | COc1ccc(COc2ccc(Cl)cc2Cn2nc(C(=O)NS(=O)(=O)c3ccccc3)cc2C)cc1 [Example 4, N-{1-[5-CHLORO-2-(4-METHOXY-BENZYLOXY)-BENZYL]-5-METHYL-1H-PYRAZOLE-3-CARBONYL}-BENZENESULFONAMIDE] | 2 nM | 400 nM | 140 nM | 2500 nM | 900 nM | 4900 nM | 800 nM | 10 nM
5 | Cc1cc(C(=O)NS(=O)(=O)c2ccccc2)nn1Cc1cc(Cl)ccc1OCc1ccc(Cl)cc1 [Example 5, N-{1-[5-CHLORO-2-(4-CHLORO-BENZYLOXY)-BENZYL]-5-METHYL-1H-PYRAZOLE-3-CARBONYL}-BENZENESULFONAMIDE] | 10 nM | 1700 nM | 75 nM | 1500 nM | 2000 nM | ≥ 10000 nM | 2600 nM | 10 nM
6 | CCC(CC)COc1ccc(Br)cc1Cn1nc(C(=O)O)cc1C [Example 6, 1-[5-BROMO-2-(2-ETHYL-BUTOXY)-BENZYL]-5-METHYL-1H-PYRAZOLE-3-CARBOXYLIC ACID] | < 1 nM | 35 nM | 800 nM | ≥ 10000 nM | 500 nM | 6200 nM | 150 nM | 10 nM
7 | CCC(C)(CC)COc1ccc(Br)cc1Cn1nc(C(=O)O)cc1C [Example 7, 1-[5-BROMO-2-(2-ETHYL-2-METHYL-BUTOXY)-BENZYL]-5-METHYL-1H-PYRAZOLE-3-CARBOXYLIC ACID] | 11 nM | 80 nM | 2070 nM | ≥ 10000 nM | 1700 nM | 3600 nM | 150 nM | 19 nM
8 | Cc1cc(C(=O)O)nn1Cc1cc(Br)ccc1OCC1CCC1 [Example 8, 1-(5-BROMO-2-CYCLOBUTYLMETHOXY-BENZYL)-5-METHYL-1H-PYRAZOLE-3-CARBOXYLIC ACID] | 8 nM | 8 nM | 700 nM | 4100 nM | 5600 nM | ≥ 10000 nM | 130 nM | 10 nM
9 | Cc1cc(C(=O)O)nn1Cc1cc(Br)ccc1OCC1(C(F)(F)F)CCC1 [Example 9, 1-[5-BROMO-2-(1-TRIFLUOROMETHYL-CYCLOBUTYLMETHOXY)-BENZYL]-5-METHYL-1H-PYRAZOLE-3-CARBOXYLIC ACID] | 10 nM | 30 nM | 600 nM | 2600 nM | ≥ 10000 nM | 3300 nM | 190 nM | 16 nM
